Laboratory results from patent US20130012429A1, “ANTI-VIRAL THERAPY” (priority 2011, published 2013).
“Also recorded” adds a separate entry of the source. No end group written: not given here.

Columns and labels:
HAMP mRNA = HAMP mRNA induction by BMP6, BMP9 or IL-6 in hepatoma cells pre-treated with TNF-alpha (qRT-PCR); assay type: cell-based, human; details: TNF-alpha treatment
Method: (§1) RNA extraction and cDNA synthesis were carried out by using either RNeasy kits with QIAshredder homogenization (both Qiagen) and the High capacity RNA-to-cDNA kit (Applied Biosystems), or by using the Cells-to-Ct kit (Applied Biosystems), all according to the manufacturers' protocols. qRT-PCR reactions were performed on an Applied Biosystems Fast 7500 Real-Time PCR System (Applied Biosystems). Gene expression was assessed using inventoried Taqman Gene Expression Assays (Applied Biosystems) (see table 4 for assay codes) with Taqman Gene Expression Master Mix (Applied Biosystems) following the manufacturer's instructions. cDNA was diluted in Nuclease-Free Water (Ambion) to achieve a final concentration of 1-3 ng/uL. Samples were run in duplicate and gene expression levels were quantified relative to glyceraldehyde-3-phosphate dehydrogenase (GAPDH) mRNA expression using the delta Ct method; in some cases relative expression was then quantified further by normalizing to the untreated controls (delta-delta Ct method).
(§2) The hepatoma cell line Hep3B were maintained in MMEM supplemented with 10% foetal calf serum (PAA), 2 mM glutamine, 100 U/mL penicillin, 0.1 mg/mL streptomycin (all Sigma). HuH7 and HuH7.5 cells were cultured in DMEM supplemented as above. HuH7.5 cells infected at a MOI of 0.02 or hepatoma cells pre-treated for 48 h with TNF-alpha at 20 ng/mL were incubated overnight with titrations of human recombinant BMP6 or BMP9, and in the case of TNF-alpha treated cells IL-6 (all R&D Systems). Titrations of TNF-alpha were applied for 48 h prior to RNA extraction. A neutralizing anti-TNF-alpha antibody (clone 1825), (R&D Systems) supplemented the culture medium of HCV infected HuH7.5 cells at 0.2 μg/mL and was added at each sub culture from 2 days post infection to the end of the infection course. Uninfected cells were cultured and treated in parallel with the HCV infected cells.

[1] = test system: SMAD1/5/8 phosphorylation; assay: Western blot of p-SMAD1/5/8 in Hep3B cells pre-treated with TNF-alpha and exposed to BMP6; assay type: cell-based, human
Method: Hep3B cells were exposed to TNF-alpha at 20 ng/mL for 48 hours before the addition of BMP6 at an end concentration of 2 nM. Lysates were harvested at either 1 h or 18 h post addition of BMP6. Briefly, cells were trypsinised and lysed for 20 min on ice in NP40 1% buffer supplemented with protease inhibitors (Sigma) at 1:500 and phosphatase inhibitor cocktail 2 (Sigma) at 1:100. The lysates were spun at 4° C., 13,000 rpm for 5 minutes and the supernatants stored at −80° C. until the blot was performed. Briefly, the protein content of the lysates was normalised using the BCA assay (Pierce) and run on 12% SDS-PAGE mini gels. Gels were blotted onto nitrocellulose membranes (GE Healthcare) and then blocked for 1 hour at room temperature in PBS containing 5% (w/v) milk. Membranes were then probed overnight at 4° C. in TBS-TWEEN containing 5% (w/v) BSA with the following primary antibodies: mouse anti-beta-actin (loading control) (Sigma), mouse anti-rabbit IgG (negative control) (Dako), rabbit anti-pSMAD1/5/8 (Cell Signalling), or rabbit anti-H.Pylori (negative control) (Dako). […] Membranes were developed using ECL reagent (GE Healthcare), films were scanned using an AlphaScan (Alpha Innotech) running Epson Scan software (Seiko Epson), and band intensities were determined using ImageQuant5.2 (Molecular Dynamics).

[2] = test system: BMP/SMAD signalling pathway; assay: HJV, SMAD6 and SMAD7 mRNA in uninfected hepatoma (Hep3B) cells incubated with TNF-alpha (qRT-PCR); assay type: cell-based, human
Method: as §1, §2

HCV (Jc1 HCV strain) = assay: Antiviral experiments: HCV-RNA in supernatants and cells of HCV-infected HuH7.5 cells (qRT-PCR); assay type: cell-based, hepatitis C virus
Excerpt: The Jc1 HCV strain was produced as described previously (Reference 20). Briefly, HuH7.5 cells were transfected with Jc1 RNA by electroporation and supernatants harvested 14-20 days post transfection. HuH7.5 cells were infected at a multiplicity of infection (MOI) of 0.02 unless otherwise stated. Infection was allowed to proceed for 9-11 days at which point infection was greater than 90% as determined by immunofluorescence (also described in Reference 20).
5 day time course: cells infected as described above at a MOI of 0.02 for 2 h were plated and then immediately treated with BMP6 at the doses stated in the figures for the duration of the infection. 10 day time course: cells infected for 2 h were plated and incubated for 3 days. Cells were sub-cultured and BMP6 added at the stated doses. Additional doses of the same concentration were applied at further sub-culturing to maintain the dose. For both time courses, IFNa (PBL Biomedical Laboratories) was added at 1000 U overnight either at day 4 (5 day time course) or day 9 (10 day time course). Supernatant RNA extraction was performed using QIAamp viral RNA extraction kit and total cellular RNA was extracted using RNeasy kit (both Qiagen). cDNA was then transcribed using the Superscript III Reverse transcriptase (Invitrogen) (random hexamers), all according to the manufacturers' protocols. HCV-RNA levels were measured using qRT-PCR in a LightCycler 480 Real-Time PCR System (Roche). cDNA at 10-100 ng/uL was amplified using RC1 (5′ […] 3′ (SEQ ID NO:3)) and RC21(5′ […] 3′ (SEQ ID NO:4)) primers. Each reaction was run in duplicate. HCV-RNA levels were quantified using a standard curve derived from HCV Jc1 cDNA.

[3] = test system: Influenza A Virus Strain PR8; assay type: cell-based; details: infected HuH7 cells mixed 1:10 with uninfected, cultured 24 hours; compared with interferon alpha and beta; FIG. 2
[4] = 1 uM hepcidin peptide added 3 days after HCV inoculation, a further 7 days, FIG. 11

Molecule: TNF-alpha
- mean suppression of HAMP mRNA upregulation in response to BMP6 (HAMP mRNA; FIG. 9b): 16.8 fold
- mean suppression of HAMP mRNA upregulation in response to BMP9 (HAMP mRNA; FIG. 9c): 4.3 fold
- hepcidin response to IL-6 (HAMP mRNA; FIG. 10): blunted
- inhibition of SMAD1/5/8 phosphorylation stimulated by BMP6 ([1]; 18 hr exposure to BMP6, TNF-alpha pre-treatment): ~35%
- p-SMAD1/5/8 after incubation with BMP6 ([1]; Hep3B cells, BMP6 for both 1 hr and 18 hr, FIG. 9a): reduced
- HJV mRNA levels ([2]; FIG. 5e): reduced
- SMAD6 mRNA ([2]; FIG. 5f): increased
- SMAD7 mRNA ([2]; FIG. 5f): increased

Molecule: hepcidin: hepcidin peptide, the iron regulatory hormone encoded by HAMP, added exogenously at 1 uM (DTHFPICIFCCGCCHRSKCGMCCKT; ends and bridges not checked; cysteine pairing not given here; UniProt P81172 60-84, looked up)
- HCV RNA in cells (HCV (Jc1 HCV strain); [4]): not significantly altered
- HCV RNA in supernatant (HCV (Jc1 HCV strain); [4]): not significantly altered
- effect on HCV replication (HCV (Jc1 HCV strain); FIG. 11): No specific effect

B1: BMP6: human recombinant BMP6 (R&D Systems), a bone morphogenetic protein that stimulates the BMP/SMAD signalling pathway (protein, UniProt P22004 375-513, looked up)
Bone morphogenetic protein 6: SASSRRRQQSRNRSTQSQDVARVSSASDYNSSELKTACRKHELYVSFQDLGWQDWIIAPKGYAANYCDGECSFPLNAHMNATNHAIVQTLVHLMNPEYVPKPCCAPTKLNAISVLYFDDNSNVILKKYRNMVVRACGCH
- spread of the Influenza virus (level of haemagglutinin) [3]: restricts spread of the Influenza virus
- viral RNA in supernatants, established infection (HCV (Jc1 HCV strain); 2 nM BMP6 added after 3 days of HCV replication, measured after a further 7 days): reduced modestly
- viral RNA in supernatants, established infection (HCV (Jc1 HCV strain); 6 nM BMP6 added after 3 days of HCV replication, measured after a further 7 days): reduced modestly
- culture supernatant HCV RNA after 5 days (HCV (Jc1 HCV strain); 5 days post-infection, BMP6 at all doses for the duration of the infection, IFNa overnight, FIG. 12b): significantly reduced; also recorded: significantly lower
- viral RNA in supernatants, established infection (HCV (Jc1 HCV strain); 10 days post-infection, 18 nM BMP6 for 7 days or IFNa overnight, FIG. 12c): lower
- cellular HCV RNA, established infection (HCV (Jc1 HCV strain); 10 days post-infection, 18 nM BMP6 for 7 days or IFNa overnight, FIG. 12d): significantly reduced; also recorded: lower
- accumulation of HCV RNA in culture supernatants over time (HCV (Jc1 HCV strain); BMP6 added immediately after infecting HuH7.5 cells, 5 day time course, FIG. 12a): severely restricted; also recorded: reduced
- suppression of HCV growth (HCV (Jc1 HCV strain); in vitro live virus model, over 5 days): over 90%
